Reference: patent publication US20260000754A1, “NANOPARTICLES AS CARRIER-SYSTEM FOR ADJUVANTS/ANTIGENS” (UNIVERSITAT HEIDELBERG, priority 2020, published 2026)

What was measured:
[1] = Solubility enhancement of epitopes (solubility in water); format: physicochemical
Source text: On the N-terminal site of the enzymatically cleaved linker the addition of polar amino acids can be used to enhance the solubility of the whole peptide. […] The use in a human vaccine is difficult. In animal studies researchers dissolve it in DMSO. The solubility after e.g. subcutaneous injection is questionable: dilution might result in precipitation of large peptide particles, which is very unfavorable for transport to lymphnodes.
According to the invention the epitope […] was enlarged on the N-terminal site with the enzymatic cleavable linker Val-Cit and the cationic solubilizing sequence Lys-Lys-Lys, leading to • KKKV-Cit-[…].
After endosomal and/or cytosolic cleavage by cathepsin B the native HPV 16 E782-90 is released. Also the remaining KKKV-Cit is not immunogenic, due to the fact it's too short to be presented at any MHC I or MHC II.

[2] = test system: DC2.4 cells; assay: MHC I cross presentation of OVA257-264 in DC2.4 cells; format: cell-based, murine; details: 6 h incubation with 5 μM solution, with or without SiO2—PO3H2; 25-D1.16 antibody, flow cytometry
Procedure: In the experiment, the OVA257-264 presentation efficacy after incubation of 5·10^4 DC2.4 cells with 5 μM solutions of full length protein (OVA=Ovalbumin), N- and C-terminal elongated epitope (OVA247-264A5K, a so called synthetic long peptide (SLP)), N-terminal elongated epitope with a Cathepsin B cleavable sequence (exemplary shown RW-Cit-OVA257-264) or native epitope (OVA 257-264), each with and without nanoparticles, was compared. […] After an incubation time of 6 h, the test substances are removed by washing with phosphate-buffered saline (PBS). In the next step, the cells were incubated with CD16/CD32 antibody in order to block the non-specific binding of the detection antibody to the Fc (Fragment, crystallizable) receptor of the cells. After incubation with 25-D1.16 antibody, the amount of cross-presented OVA257-264 was quantified by flow cytometry.
FIG. 16: OVA257-264 MHC I presentation after 6 h incubation of H2-Kb positive cells with 5 μM solution of native or elongated OVA257-264 epitope or full length OVA protein with or without SiO2—PO3H2. Quantification was carried out by flow cytometry after labeling with 25-D1.16 detection antibody.

[3] = Stability measurement in bovine serum (HEK-Blue hTLR3 cell readout); format: in vitro ADME; details: 60 minutes at 37° C., 5, 10 and 20% FBS
Source text: HEK-Blue™ hTLR3 Cells are designed to measure the stimulation of […] monitoring the activation of NF-kB. HEK-Blue™hTLR3Cells were obtained by co-transfection of the hTLR3 gene and an optimized secreted embryonic alkaline phosphatase (SEAP) reporter gene placed under the control of an NF-kB and AP-1-inducible promoter intoHEK293 cells. Stimulation with a TLR3 ligand activates NF-kB and AP-1 which induce the production of SEAP. Levels of SEAP can be easily determined with HEK-Blue™ Detection, a cell culture medium that allows for real-time detection of SEAP. The hydrolysis of the substrate by SEAP produces a purple/blue color that can be easily detected with the naked eye or measured with a 96 well plate reader (Invivogen).
The serum was used in concentrations of 5, 10 and 20%. A serum concentration of 20% corresponds quite well to the composition of peripheral lymph.
The poly(I:C) payload at SiO2—Arg in this case was about 2.5%. After exposure to FBS 20 μL of the medium were taken and added to 180 μL HEK-Blue™ hTLR3 cells in HEK-Blue™ Detection medium. This mixture was incubated for 13 hours at 37° C. and the plate was analyzed in a 96 well plate reader (Tecan Reader, Type: Infinite M200 Pro).

[4] = Stability measurement in human serum (HEK-Blue hTLR3 cell readout); format: in vitro ADME; details: 20% human serum, 37° C., 1 μg poly(I:C)/mL

| Molecule | solubility in water [1] | OVA257-264 MHC I presentation [2] | further results |
| --- | --- | --- | --- |
| CC[C@H](C)[C@H](NC(=O)CNC(=O)[C@H](CC(C)C)NC(=O)[C@@H](NC(=O)CNC(=O)[C@H](CCSC)NC(=O)[C@H](CC(C)C)NC(=O)[C@H](CC(C)C)NC(=O)[C@H](CCCNC(N)=O)NC(=O)[C@@H](NC(=O)[C@H](CCCCN)NC(=O)[C@H](CCCCN)NC(=O)[C@@H](N)CCCCN)C(C)C)[C@@H](C)O)C(=O)N[C@H](C(=O)O)C(C)C | excellent |  |  |
| CC[C@H](C)[C@H](NC(=O)CNC(=O)[C@H](CC(C)C)NC(=O)[C@@H](NC(=O)CNC(=O)[C@H](CCSC)NC(=O)[C@H](CC(C)C)NC(=O)[C@@H](N)CC(C)C)[C@@H](C)O)C(=O)N[C@H](C(=O)O)C(C)C | very bad |  |  |
| RW-Cit-OVA257-264 |  | presented in significant amounts |  |
| SIINFEKL [OVA257-264] |  | presented in significant amounts |  |
| polyinosinic: polycytidylic acid [poly(I:C)] |  |  | stability in fetal bovine serum [3]: clear signs of degradation at higher serum concentrations; % of initial concentration after 60 minutes [4]: 18%; calculated half-life [4]: 24.2 min |
